# Measured values published in ChEMBL document CHEMBL5257144, “Novel Serine-Arginine Protein Kinase Inhibitors for Treating Cancer” (ACS Med Chem Lett, 2023).
# Biological target: SRSF protein kinase 1 (Homo sapiens, UniProt Q96SB4)
# Test: Inhibition of SRPK1 (unknown origin) using RS peptide as substrate incubated for 120 mins in the presence 33P-ATP
# SRSF protein kinase 1, sequence (Q96SB4 whole entry): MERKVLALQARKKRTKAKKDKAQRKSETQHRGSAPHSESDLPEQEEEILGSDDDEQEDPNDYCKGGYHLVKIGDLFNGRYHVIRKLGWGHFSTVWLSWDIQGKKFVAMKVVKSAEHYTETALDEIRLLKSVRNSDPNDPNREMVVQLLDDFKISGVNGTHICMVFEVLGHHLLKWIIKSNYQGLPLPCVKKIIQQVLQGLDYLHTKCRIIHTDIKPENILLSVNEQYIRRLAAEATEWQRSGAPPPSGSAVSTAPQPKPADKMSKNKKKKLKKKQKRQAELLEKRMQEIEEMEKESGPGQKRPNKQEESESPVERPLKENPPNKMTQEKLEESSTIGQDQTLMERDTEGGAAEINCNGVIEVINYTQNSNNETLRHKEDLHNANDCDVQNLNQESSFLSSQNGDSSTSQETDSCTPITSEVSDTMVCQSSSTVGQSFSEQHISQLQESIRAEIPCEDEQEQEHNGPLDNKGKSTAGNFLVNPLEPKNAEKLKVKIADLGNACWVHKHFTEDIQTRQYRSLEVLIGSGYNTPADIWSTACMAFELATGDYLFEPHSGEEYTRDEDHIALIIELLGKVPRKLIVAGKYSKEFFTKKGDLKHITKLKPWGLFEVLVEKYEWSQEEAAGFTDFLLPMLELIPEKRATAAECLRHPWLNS
row,Structure (SMILES),IC50
1,CN(c1ncccc1CNc1cnc(-c2nc3cc(Cl)cc(F)c3[nH]2)nc1)S(C)(=O)=O,< 50 nM
2,CN(c1ncccc1CNc1ccc(-c2nc3cc(Cl)ccc3[nH]2)nc1)S(C)(=O)=O,< 50 nM
3,CN(c1ncccc1CNc1cnc(-c2nc3cc(F)cc(F)c3[nH]2)nc1)S(C)(=O)=O,< 50 nM

# Now from value to molecule:
row,IC50,Structure (SMILES)
1,< 50 nM,Cc1ccc2nc(-c3ncc(NCc4cccnc4N(C)S(C)(=O)=O)cn3)[nH]c2c1
2,< 50 nM,CN(c1ncccc1CNc1cnc(-c2nc3cc(-c4cnn(C)c4)ccc3[nH]2)nc1)S(C)(=O)=O
3,< 50 nM,CC(C)c1ccc2[nH]c(-c3ncc(NCc4cccnc4N(C)S(C)(=O)=O)cn3)nc2c1
